According to patent publication US20180346920A1, “Mutations Conferring Acetyl-Coa Carboxylase (ACC) Inhibiting Herbicide Tolerance in Sorghum” (Chromatin, Inc., priority 2017, published 2018):

Key:
[1] = system: sorghum (Inbred BTX430) calli; assay: Kill curve experiment on sorghum calli; format: cell-based, Sorghum bicolor; conditions: 0.2 uM concentration; three week old BTX430 calli
Method: Callus production from the isolation of immature embryos (IEs) was accomplished by removing immature seeds from greenhouse grown sorghum (Inbred BTX430) panicles approximately 14 days after anthesis and surface sterilized in ethanol followed by a bleach solution and then washed in sterilized water. Immature embryos were isolated from seeds and transferred to medium with 20 IEs per plate. Cultures were grown for two weeks at (28° C.). All explants which produced somatic embryogenic calli were transferred to growth medium and cultured for an additional 4-6 days at 28° C. Explants were transferred to fresh media every three weeks until the entire callus turned into compact and friable green callus. Three weeks old freshly subcultured calli were used for the experiment
The herbicide active ingredient molecule of ACC herbicide Assure II (Quizalofop-p-ethyl) was used for screening and selection process. For identifying the optimum concentration for screening, a kill curve experiment with concentrations ranging from 0.05 to 1.0 μM of a.i. molecules were tested. Three week old calli were cut into small pieces of 4-5 mm dia and 25 pieces were tested in three replications for each concentration. Concentrations used were: 0.05, 0.1, 0.2, 0.3, 0.4, 0.5 and 1 μM Quizalofop p-ethyl. […]

[2] = system: FOP herbicide resistant calli (FP-1 to FP-19); assay: Resistant calli tested on higher herbicide concentrations in culture medium; format: cell-based, Sorghum bicolor
Method: The herbicide active ingredient molecule of ACC herbicide Assure II (Quizalofop-p-ethyl) was used for screening and selection process. For identifying the optimum concentration for screening, a kill curve experiment with concentrations ranging from 0.05 to 1.0 μM of a.i. molecules were tested. Three week old calli were cut into small pieces of 4-5 mm dia and 25 pieces were tested in three replications for each concentration. Concentrations used were: 0.05, 0.1, 0.2, 0.3, 0.4, 0.5 and 1 μM Quizalofop p-ethyl. As 50% of calli were killed at 0.2 uM concentration, the following selection criteria was followed for entire screening process. Selection process was started with 0.05 um and doubled the concentration for every 3 weeks and the calli surviving on 1.0 uM was considered as resistant calli.
For the chemical mutagenesis, two chemical mutagens Ethyl methanesulfonate (EMS) (0.25 and 0.5%) and Sodium azide (0.5 and 1.0 uM) were used. These mutagens at specified concentration were directly added into the culture media. The calli pieces were first cultured on the media containing the mutagens for 6 and 12 hrs and then transferred to the above mentioned selection procedure. A total of 16 experiments were conducted with varying amount of calli pieces. After 21 to 24 weeks of selection, the surviving calli were considered as herbicide resistant calli. […]

Compound: CCOC(=O)[C@@H](C)Oc1ccc(Oc2cnc3cc(Cl)ccc3n2)cc1 [Quizalofop-p-ethyl]
- calli killed [1]: 50%
- survival of FOP resistant calli ([2]; 100 μM, FP-7, FP-8, FP-9, FP-10, FP-13, FP-15): surviving
- growth of FOP herbicide resistant calli on tissue culture medium ([2]; FP-13, 1, 1.5, 2, 5, 10 μM): growing
